Source: patent publication US20230250066A1, “HERBICIDAL CINNOLINE DERIVATIVES” (SYNGENTA CROP PROTECTION AG, priority 2020, published 2023)

How the values were obtained:
Format in all cases: in vivo
Solanum nigrum (SOLNI) [1] = assay: Pre-emergence herbicidal test; details: 1000 g/ha, evaluated after 13 days
Lolium perenne (LOLPE) [2] = assay: Pre-emergence herbicidal test; details: 1000 g/ha, evaluated after 13 days
[3] = system: Ipomoea hederacea (IPOHE); assay: Pre-emergence herbicidal test; details: 1000 g/ha, evaluated after 13 days
[4] = system: Ipomoea hederacea (IPOHE); assay: Post-emergence herbicidal test; details: 1000 g/ha unless otherwise stated, evaluated after 13 days
Method in brief: (§1)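 Spray-applied at 1000 g/ha unless stated, in the glasshouse. Damage rated 13 days later on a 0–5 scale.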

[5] = system: Echinochloa crus-galli (ECHCG); assay: Post-emergence herbicidal test; details: 1000 g/ha unless otherwise stated, evaluated after 13 days
Method in brief: as §1

[6] = system: Amaranthus retoflexus (AMARE); assay: Post-emergence herbicidal test; details: 1000 g/ha unless otherwise stated, evaluated after 13 days
Method in brief: as §1

Setaria faberi (SETFA) [7] = assay: Post-emergence herbicidal test; details: 1000 g/ha unless otherwise stated, evaluated after 13 days
Method in brief: as §1

Lolium perenne (LOLPE) [8] = assay: Post-emergence herbicidal test; details: 1000 g/ha unless otherwise stated, evaluated after 13 days
Method in brief: as §1

Solanum nigrum (SOLNI) [9] = assay: Post-emergence herbicidal test; details: 1000 g/ha unless otherwise stated, evaluated after 13 days
Method in brief: as §1

[10] = system: Amaranthus retoflexus (AMARE); assay: Pre-emergence herbicidal test; details: 1000 g/ha, evaluated after 13 days
[11] = system: Echinochloa crus-galli (ECHCG); assay: Pre-emergence herbicidal test; details: 1000 g/ha, evaluated after 13 days
Setaria faberi (SETFA) [12] = assay: Pre-emergence herbicidal test; details: 1000 g/ha, evaluated after 13 days
Zea mays (ZEAMX) [13] = assay: Pre-emergence herbicidal test; details: 1000 g/ha, evaluated after 13 days
Zea mays (ZEAMX) [14] = assay: Post-emergence herbicidal test; details: 1000 g/ha unless otherwise stated, evaluated after 13 days
Method in brief: as §1

[15] = system: Abutilon theophrasti (ABUTH); assay: Post-emergence herbicidal test; details: 1000 g/ha unless otherwise stated, evaluated after 13 days
Method in brief: as §1

[16] = system: Abutilon theophrasti (ABUTH); assay: Pre-emergence herbicidal test; details: 1000 g/ha, evaluated after 13 days

| SMILES | percentage damage caused to the plant, five-point scale, SOLNI (Solanum nigrum (SOLNI) [1]) | percentage damage caused to the plant, five-point scale, LOLPE (Lolium perenne (LOLPE) [2]) | percentage damage caused to the plant, five-point scale, IPOHE [3] | percentage damage caused to the plant, IPOHE (five-point scale) [4] | percentage damage caused to the plant, ECHCG (five-point scale) [5] | percentage damage caused to the plant, AMARE (five-point scale) [6] | percentage damage caused to the plant, SETFA (five-point scale) (Setaria faberi (SETFA) [7]) | percentage damage caused to the plant, LOLPE (five-point scale) (Lolium perenne (LOLPE) [8]) | percentage damage caused to the plant, SOLNI (five-point scale) (Solanum nigrum (SOLNI) [9]) | percentage damage caused to the plant, five-point scale, AMARE [10] | percentage damage caused to the plant, five-point scale, ECHCG [11] | percentage damage caused to the plant, five-point scale, SETFA (Setaria faberi (SETFA) [12]) | percentage damage caused to the plant, five-point scale, ZEAMX (Zea mays (ZEAMX) [13]) | percentage damage caused to the plant, ZEAMX (five-point scale) (Zea mays (ZEAMX) [14]) | percentage damage caused to the plant, ABUTH (five-point scale) [15] | percentage damage caused to the plant, five-point scale, ABUTH [16] |
| --- | --- | --- | --- | --- | --- | --- | --- | --- | --- | --- | --- | --- | --- | --- | --- | --- |
| CSc1cccc2c1c(=O)c(C(=O)O)nn2-c1ccc(OC(F)(F)F)cc1 [Compound P1, 5-methylsulfanyl-4-oxo-1-[4-(trifluoromethoxy)phenyl]cinnoline-3-carboxylic acid] | 0 (0=0%) | 0 (0=0%) | 0 (0=0%) | 0 (0=0%) | 0 (0=0%) | 0 (0=0%) | 0 (0=0%) | 0 (0=0%) | 0 (0=0%) | 0 (0=0%) | 0 (0=0%) | 0 (0=0%) | – | – | – | – |
| CS(=O)(=O)c1cccc2c1c(=O)c(C(=O)O)nn2-c1ccc(OC(F)(F)F)cc1 [Compound P2, 5-methylsulfonyl-4-oxo-1-[4-(trifluoromethoxy)phenyl]cinnoline-3-carboxylic acid] | 4 (4=61-80%) | 5 (5=81-100%) | 1 (1=10-20%) | 2 (2=21-40%) | 4 (4=61-80%) | 1 (1=10-20%) | 4 (4=61-80%) | 4 (4=61-80%) | 4 (4=61-80%) | 1 (1=10-20%) | 5 (5=81-100%) | 5 (5=81-100%) | – | – | – | – |
| COC(=O)c1nn(-c2ccc(OC(F)(F)F)cc2)c2cccc(S(C)(=O)=O)c2c1=O [Compound P3, methyl 5-methylsulfonyl-4-oxo-1-[4-(trifluoromethoxy)phenyl]cinnoline-3-carboxylate] | 1 (1=10-20%) | 4 (4=61-80%) | 1 (1=10-20%) | 1 (1=10-20%) | 4 (4=61-80%) | 1 (1=10-20%) | 4 (4=61-80%) | 4 (4=61-80%) | 1 (1=10-20%) | 1 (1=10-20%) | 4 (4=61-80%) | 4 (4=61-80%) | – | – | – | – |
| CSc1cccc2c1c(=O)c(C(=O)O)nn2-c1ccc(Cl)cc1 [Compound P4, 1-(4-chlorophenyl)-5-methylsulfanyl-4-oxo-cinnoline-3-carboxylic acid] | 0 (0=0%) | 0 (0=0%) | 0 (0=0%) | 0 (0=0%) | 0 (0=0%) | 0 (0=0%) | 0 (0=0%) | 0 (0=0%) | 0 (0=0%) | 0 (0=0%) | 0 (0=0%) | 0 (0=0%) | – | – | – | – |
| CS(=O)(=O)c1cccc2c1c(=O)c(C(=O)O)nn2-c1ccc(Cl)cc1 [Compound P5, 1-(4-chlorophenyl)-5-methylsulfonyl-4-oxo-cinnoline-3-carboxylic acid] | 1 (1=10-20%) | 4 (4=61-80%) | 1 (1=10-20%) | 1 (1=10-20%) | 4 (4=61-80%) | 1 (1=10-20%) | 4 (4=61-80%) | 4 (4=61-80%) | 4 (4=61-80%) | 1 (1=10-20%) | 4 (4=61-80%) | 4 (4=61-80%) | – | – | – | – |
| CS(=O)(=O)c1cccc2c1c(=O)c(C(=O)OCCCCOCc1ccccc1)nn2-c1ccc(OC(F)(F)F)cc1 [Compound P89, 4-benzyloxybutyl 5-methylsulfonyl-4-oxo-1-[4-(trifluoromethoxy)phenyl]cinnoline-3-carboxylate] | – | – | 0 (0=0%) | 0 (0=0%) | 3 (3=41-60%) | 0 (0=0%) | 4 (4=61-80%) | – | – | 0 (0=0%) | 4 (4=61-80%) | 4 (4=61-80%) | 0 (0=0%) | 0 (0=0%) | 0 (0=0%) | 0 (0=0%) |
| CCCCCCCCSC(=O)c1nn(-c2ccc(OC(F)(F)F)cc2)c2cccc(S(C)(=O)=O)c2c1=O [Compound P90, S-octyl 5-methylsulfonyl-4-oxo-1-[4-(trifluoromethoxy)phenyl]cinnoline-3-carbothioate] | – | – | 0 (0=0%) | 1 (1=10-20%) | 3 (3=41-60%) | 0 (0=0%) | 4 (4=61-80%) | – | – | 0 (0=0%) | 3 (3=41-60%) | 4 (4=61-80%) | 0 (0=0%) | 1 (1=10-20%) | 0 (0=0%) | 0 (0=0%) |
| CC(C)CCSC(=O)c1nn(-c2ccc(OC(F)(F)F)cc2)c2cccc(S(C)(=O)=O)c2c1=O [Compound P91, S-isopentyl 5-methylsulfonyl-4-oxo-1-[4-(trifluoromethoxy)phenyl]cinnoline-3-carbothioate] | – | – | 0 (0=0%) | 1 (1=10-20%) | 3 (3=41-60%) | 0 (0=0%) | 4 (4=61-80%) | – | – | 0 (0=0%) | 3 (3=41-60%) | 4 (4=61-80%) | 0 (0=0%) | 1 (1=10-20%) | 1 (1=10-20%) | 0 (0=0%) |
| CS(=O)(=O)c1cccc2c1c(=O)c(C(=O)SCCCc1ccccc1)nn2-c1ccc(OC(F)(F)F)cc1 [Compound P92, S-(3-phenylpropyl) 5-methyslulfonyl-4-oxo-1-[4-(trifluoromethoxy)phenyl]cinnoline-3-carbothioate] | – | – | 0 (0=0%) | 2 (2=21-40%) | 3 (3=41-60%) | 1 (1=10-20%) | 3 (3=41-60%) | – | – | 1 (1=10-20%) | 1 (1=10-20%) | 3 (3=41-60%) | 0 (0=0%) | 1 (1=10-20%) | 2 (2=21-40%) | 1 (1=10-20%) |
